Consider 23 compounds from US5801174A, “Fused indole and quinoxaline derivatives, their preparation and use” (Neurosearch A/S, priority 1994, dated 1998).

For orientation: IC50 means the concentration needed to halve the response being measured. Read a high IC50 as lower potency.

For assay [1], the target named is AMPA receptor. The experiment in a line: AMPA receptor binding affinity (in vitro). To be noted: Table 1. From the text:
In Vitro activity (receptor affinity):
(§1) The test results obtained by testing the compounds of the invention for their in-vitro AMPA receptor affinity and their ability to inhibit GABA release are presented in the following table: […]

The test system of assay [2] is cultured cerebral cortex neurons. The experiment in a line: 3H-GABA release, cultured cerebral cortex neurons. The format is cell-based. Particulars: Cerebral cortex neuron; inhibition of stimulated 3H-GABA release, mouse cortical neurons, Table 1.
Excerpt: The compounds of the invention have also been tested for their ability to inhibit GABA release from cultured cerebral cortex neurons in the following test:
^3 H-GABA Release, Cortical Neurons
Background: Neurons which express receptors for excitatory amino acids can be depolarized by such compounds and this depolarization will ultimately lead to a release of transmitter substance from the neurons. Cultured neurons obtained from 15-day-old mouse embryo cortex are mainly GABAergic and express all types of excitatory amino acid receptors. This means that they can be stimulated by high potassium or by the excitatory amino acids, NMDA, AMPA and kainate to release their neurotransmitter GABA.
^3 H-GABA may be used to label the GABA transmitter pool in the neurons and the release of ^3 H-GABA from the neurons may be used as a simple functional model for studies of the effects of excitatory amino acids and their antagonists.
Method: Cerebral cortices of 16-day-old mouse embryos are chopped in 0.4×0.4 mm cubes. The tissue is dissociated by mild trypsinization (0.1% (wt/vol) trypsin, 37° C., 15 min) and subsequently inoculated into poly-L-lysine-coated 3-cm Petri dishes containing a slightly modified DMEM (24.5 mM KCI, 30 mM glucose) supplemented with p-aminobenzoate (7 μM), insulin (100 mU/L) and 10% (vol/vol) horse serum. Cells are maintained in culture for 5-7 days with the addition of the antimitotic agent cytosine arbinoside (40 μM) from day 2 in vitro to prevent glial profileration. For further details and references, see Drejer et al. Exp. Brain Res. 47, 259 (1982).
Release experiments are performed using the model described by Drejer et al. Life Sci. 38, 2077 (1986). Cerebral cortex neurons cultured in Petri dishes (30 mm) are added 100 μM γ-vinyl-GABA one hour before the experiment in order to inhibit degradation of GABA in the neurons. 30 min before the experiment 5 μCi ^3 H-GABA is added to each culture and after this preloading period the cell monolayer at the bottom of the dish is covered with a piece of nylon mesh to protect the cells against mechanical damage and to facilitate dispersion of medium over the cell layer. The preloading medium is removed and the Petri dishes are placed in a superfusion system consisting of a peristaltic pump continously delivering thermostated 37° C. superfusion medium HEPES buffered saline (HBS): 10 mM HEPES, 135 mM NaCl, 5 mM KCI, 0.6 mM MgSO4, 1.0 mM CaCl2 and 6 mM D-glucose; pH 7.4) from a reservoir to the top of the slightly tilted Petri dish. The medium is continously collected from the lower part of the dish and delivered to a fraction collector. Initially, the cells are superfused with HBS for 15 min (flow rate 2 ml/min). Then the cells are stimulated for 30 sec every 4 min by changing the superfusion medium from HBS to a corresponding medium containing […].
Test subtances are dissolved in 50% DMSO, 48% ethanol. The final DMSO and ethanol concentration in the assay must not exceed 0.1%.
The stimulated release of ^3 H-GABA (cpm) are corrected for the mean basal release(cpm) before and after stimulation.
The stimulated release in the presence of antagonists are expressed relative to the stimulated release and the IC50 value for the antagonist is calculated (the concentration (μM) of the test substance which inhibit 50% of the stimulated ^3 H-GABA release).
as §1

For `CN1CCc2c(-c3ccc(S(=O)(=O)N(CCO)CCO)cc3)cc3c(c2C1)NC(=O)C3=NO` [8-methyl-5-(4-(N,N-bis(2-hydroxyethyl)sulphamoyl)-phenyl)-6,7,8,9-tetrahydro-1H-pyrrolo[3,2-h]-isoquinoline-2,3-dione-3-oxime], the figures for the IC50 in assay [1] and in assay [2] were 50 nM and 130 nM, respectively.

On to `CCN1Cc2c(-c3ccc(S(=O)(=O)N4CCOCC4)cc3)cc3c(c2C1)NC(=O)C3=NO` [7-ethyl-5-(4-(morpholinosulfonyl)phenyl)-1,6,7,8-tetrahydrobenzo[1,2-b:3,4-c]dipyrrole-2,3-dione-3-oxime], for which the IC50 in assay [1] was 140 nM; in assay [2], 500 nM.

Regarding `CN1CCc2c(-c3ccc(S(=O)(=O)N4CCOCC4)cc3)cc3c(c2C1)NC(=O)C3=O` [8-methyl-5-(4-(morpholinosulfonyl)-phenyl)-6,7,8,9-tetrahydro-1H-pyrrolo[3,2-h]-isoquinoline-2,3-dione], the values for the concentration for half-maximal inhibition (IC50) in assay [1] and in assay [2] were 820 nM and 2160 nM, respectively.

With `CN1CCc2c(-c3ccc(S(=O)(=O)N4CCOCC4)cc3)cc3c(c2C1)NC(=O)C3=NO` [8-methyl-5-(4-(morpholinosulfonyl)phenyl)-6,7,8,9-tetrahydro-1H-pyrrolo[3,2-h]-isoquinoline-2,3-dione-3-oxime], the values for the IC50 in assay [1] and in assay [2] were 40 nM and 30 nM, respectively.

Take `CN1CCc2c(-c3ccc(C(=O)N(C)C)cc3)cc3c(c2C1)NC(=O)C3=NO` [8-methyl-5-(4-(N,N-dimethylcarbamoyl)-phenyl)-6,7,8,9-tetrahydro-1H-pyrrolo[3,2-h]-isoquinoline-2,3-dione-3-oxime]: the half-inhibitory concentration (IC50) in assay [1] is 140 nM; in assay [2] it was 190 nM.

`CCOC(=O)CNS(=O)(=O)c1ccc(-c2cc3c(c4c2CCN(C)C4)NC(=O)C3=NO)cc1` [8-methyl-5-(4-(N-(ethoxycarbonylmethyl)-sulphamoyl)phenyl)-6,7,8,9-tetrahydro-1H-pyrrolo[3,2-h]isoquinoline-2,3-dione-3-oxime]: the IC50 in assay [1] amounted to 34 nM; in assay [2], 340 nM.

In the case of `CN1CCc2c(-c3ccc(S(=O)(=O)NC(C)(C)C)cc3)cc3c(c2C1)NC(=O)C3=NO` [8-methyl-5-(4-(N-t-butylsulphamoyl)-phenyl)-6,7,8,9-tetrahydro-1H-pyrrolo[3,2-h]-isoquinoline-2,3-dione-3-oxime], the IC50 in assay [1] is 30 nM; in assay [2], 240 nM.

In the case of `CN1CCc2c(-c3ccc(S(=O)(=O)NCCO)cc3)cc3c(c2C1)NC(=O)C3=NO` [8-methyl-5-(4-(N-(2-hydroxyethyl)sulphamoyl)-phenyl)-6,7,8,9-tetrahydro-1H-pyrrolo[3,2-h]-isoquinoline-2,3-dione-3-oxime], the IC50 in assay [1] came to 40 nM; in assay [2], 330 nM.

As for `CN1CCc2c(-c3ccc(S(=O)(=O)N4CCCCC4)cc3)cc3c(c2C1)NC(=O)C3=NO` [8-methyl-5-(4-(piperidinosulfonyl)-phenyl)-6,7,8,9-tetrahydro-1H-pyrrolo[3,2-h]-isoquinoline-2,3-dione-3-oxime], the IC50 in assay [1] amounted to 27 nM; in assay [2], 240 nM.

Regarding `CN1CCc2c(-c3ccc(S(=O)(=O)N4CCN(CCO)CC4)cc3)cc3c(c2C1)NC(=O)C3=NO` [8-methyl-5-(4-(4-(2-hydroxyethyl)piperazinosulfonyl)-phenyl)-6,7,8,9-tetrahydro-1H-pyrrolo[3,2-h]-isoquinoline-2,3-dione-3-oxime], the IC50 in assay [1] worked out at 19 nM; in assay [2], 100 nM.

For `CCN(CC)S(=O)(=O)c1ccc(-c2cc3c(c4c2CCN(C)C4)NC(=O)C3=NO)cc1` [8-methyl-5-(4-(N,N-diethylsulphamoyl)-phenyl)-6,7,8,9-tetrahydro-1H-pyrrolo[3,2-h]-isoquinoline-2,3-dione-3-oxime], the values for the half-maximal inhibitory concentration (IC50) in assay [1] and in assay [2] were 18 nM and 160 nM, respectively.

On to `CCOC(=O)c1ccc(-c2cc3c(c4c2CCN(C)C4)NC(=O)C3=NO)cc1` [8-methyl-5-(4-(ethoxycarbonyl)phenyl)-6,7,8,9 tetrahydro-1H-pyrrolo[3,2-h]-isoquinoline-2,3-dione-3-oxime], for which the IC50 in assay [1] is 100 nM; in assay [2], 3700 nM.

On to `CN1CCc2c(-c3ccc(S(N)(=O)=O)cc3)cc3c(c2C1)NC(=O)C3=NO` [8-methyl-5-(4-(sulphamoyl)phenyl)-6,7,8,9-tetrahydro-1H-pyrrolo[3,2-h]isoquinoline-2,3-dione-3-oxime], for which the half-inhibitory concentration (IC50) in assay [1] amounted to 25 nM; in assay [2] it was 270 nM.

As for `CN1CCc2c(-c3ccc(S(=O)(=O)N(Cc4ccccc4)Cc4ccccc4)cc3)cc3c(c2C1)NC(=O)C3=NO` [8-methyl-5-(4-(N,N-dibenzylsulphamoyl)-phenyl)-6,7,8,9-tetrahydro-1H-pyrrolo[3,2-h]-isoquinoline-2,3-dione-3-oxime], the IC50 in assay [1] was 540 nM; in assay [2] it was 1900 nM.

As to `CCN(CC)CCN(CCN(CC)CC)S(=O)(=O)c1ccc(-c2cc3c(c4c2CCN(C)C4)NC(=O)C3=NO)cc1` [8-methyl-5-(4-(N,N-di(2-(N,N-diethylamino)ethyl)-sulphamoyl)-phenyl)-6,7,8,9-tetrahydro-1H-pyrrolo[3,2-h]-isoquinoline-2,3-dione-3-oxime], the results for the IC50 in assay [1] and in assay [2] were 38 nM and 450 nM, respectively.

In the case of `CN(C)CCN(C)S(=O)(=O)c1ccc(-c2cc3c(c4c2CCN(C)C4)NC(=O)C3=NO)cc1` [8-methyl-5-(4-(N-methyl-N-(2-(N,N-dimethylamino)-ethyl)sulphamoyl)-phenyl)-6,7,8,9-tetrahydro-1H-pyrrolo[3,2-h]-isoquinoline-2,3-dione-3-oxime], the results for the half-inhibitory concentration (IC50) in assay [1] and in assay [2] were 190 nM and 310 nM, respectively.

Take `CCN1Cc2c(-c3ccc(S(=O)(=O)N(C)C)cc3)cc3c(c2C1)NC(=O)C3=NO` [7-ethyl-5-(4-(N,N-dimethylsulphamoyl)phenyl)-1,6,7,8-tetrahydrobenzo[1,2-b:3,4-c]dipyrrole-2,3-dione-3-oxime]: the 50% inhibitory concentration (IC50) stood at 1600 nM in assay [1] and 4500 nM in assay [2].

`CN1CCc2c(-c3ccc(S(=O)(=O)Nc4ccccc4)cc3)cc3c(c2C1)NC(=O)C3=NO` [8-methyl-5-(4-(N-phenylsulphamoyl)-phenyl)-6,7,8,9-tetrahydro-1H-pyrrolo[3,2-h]-isoquinoline-2,3-dione-3-oxime]: the 50% inhibitory concentration (IC50) in assay [1] was determined as 66 nM; in assay [2], 380 nM.

For `CN1CCc2c(-c3ccc(S(=O)(=O)N4CCN(c5ccc(Cl)cc5)CC4)cc3)cc3c(c2C1)NC(=O)C3=NO` [8-methyl-5-(4-(4-(4-chlorophenyl)piperazinosulfonyl)-phenyl)-6,7,8,9-tetrahydro-1H-pyrrolo[3,2-h]-isoquinoline-2,3-dione-3-oxime], the 50% inhibitory concentration (IC50) came out at 68 nM in assay [1] and 877 nM in assay [2].

In the case of `CN1CCc2c(-c3ccc(S(=O)(=O)N(C)C)cc3)cc3c(c2C1)NC(=O)C3=NOC(C)(C)C` [8-methyl-5-(4-(N,N-dimethylsulphamoyl)-phenyl)-6,7,8,9-tetrahydro-1H-pyrrolo[3,2-h]-isoquinoline-2,3-dione-3-O-t-butyloxime], the IC50 in assay [1] was 470 nM; in assay [2] it was 5500 nM.

Consider `CN1CCc2c(c(-c3ccc(S(=O)(=O)N4CCOCC4)cc3)cc3c2NC(=O)C3=NO)C1` [7-methyl-5-(4-(morpholinosulfonyl)phenyl)-6,7,8,9-tetrahydro-1H-pyrrolo[2,3-f]isoquinoline-2,3-dione-3-oxime], for which the 50% inhibitory concentration (IC50) in assay [1] came out at 110 nM; in assay [2], 250 nM.

Consider `CON=C1C(=O)Nc2c1cc(-c1ccc(S(=O)(=O)N3CCOCC3)cc1)c1c2CCN(C)C1` [7-methyl-5-(4-(morpholinosulfonyl)phenyl)-6,7,8,9-tetrahydro-1H-pyrrolo[2,3-f]isoquinoline-2,3-dione-3-O-methyloxime], for which the results for the IC50 in assay [1] and in assay [2] were 220 nM and 1600 nM, respectively.

For `CN1CCc2c(-c3ccc(S(=O)(=O)N4CCN(Cc5ccc6c(c5)OCO6)CC4)cc3)cc3c(c2C1)NC(=O)C3=NO` [8-methyl-5-(4-(4-(3,4-methylenedioxybenzyl)-piperazinosulfonyl)phenyl)-6,7,8,9-tetrahydro-1H-pyrrolo[3,2-h]-isoquinoline-2,3-dione-3-oxime], the 50% inhibitory concentration (IC50) in assay [1] came to 130 nM; in assay [2] it was 500 nM.
